# Assay results taken from patent EP0125508A1, “Method for stabilizing a detrusor muscle while increasing detrusor muscle strength” (United Pharmaceuticals, Inc., priority 1983, dated 1984).
# Structures can show the parent of a compound that is named as a salt.
# What was measured:
# Stable Detrusor [1] = experiment: Isometric test: maximum isometric pressure as a function of bladder volume, stable detrusor; format: in vivo, women; conditions: for I (100): maximum bladder isometric pressure / I (200): maximum bladder isometric pressure / I (300): maximum bladder isometric pressure / I (400): maximum bladder isometric pressure / I (500): maximum bladder isometric pressure / V (1st sense): bladder urine volume at the patient's first sensation to urinate / V (Max): maximum bladder urine volume / V (Urge): bladder urine volume at the patient's urge to urinate: stable detrusor; for I (100): maximum bladder isometric pressure: bladder urine volume 100 ml; for I (200): maximum bladder isometric pressure: bladder urine volume 200 ml; for I (300): maximum bladder isometric pressure: bladder urine volume 300 ml; for I (400): maximum bladder isometric pressure: bladder urine volume 400 ml; for I (500): maximum bladder isometric pressure: bladder urine volume 500 ml; for V (1st sense): bladder urine volume at the patient's first sensation to urinate / V (Max): maximum bladder urine volume / V (Urge): bladder urine volume at the patient's urge to urinate: isometric test
# Procedure: (§1) Urodynamic studies were performed on 20 women having a mean age of 28 + 7 years. These studies incorporated water cystometrogram, UPP, and isometric tests. Control urodynamic testing without use of thiphenamil hydrochloride was undertaken in all subjects. The effects of a single dose of 400 mg and a single dose of 800 mg of thiphenamil hydrochloride given orally were compared with the control value for each subject. Specifically, the measurements taken included bladder capacity, residual volume, maximum detrusor voiding pressure, and isometric contractility during bladder filling and at bladder capacity. '
# (§2) Referring to Figure 1, data is shown taken from a subject having normal detrusor activity. The parameters measured include isometric detrusor pressure during bladder filling and while voiding under control conditions, EMG and . urine flow rate. Typical segments of a polygraph recording were obtained at a bladder volume of 100 ml (segment A), 200 ml (segment B) and the voiding at 30C ml (segment C). The parameters shown are detrusor pressure in cm H20, EMG (electromyogram) recording showing muscle electrical activity and urine flow rate.
# Unstable Detrusor [2] = experiment: Urodynamic studies, filling and voiding phase of the bladder (water cystometrogram), unstable detrusor; format: in vivo, women; conditions: for Compliance (compliance of the detrusor muscle) / P (maxflow): bladder pressure at maximum urine flow rate / P (opening): bladder pressure at the patient's initiating urination / P (voiding): bladder voiding pressure / Q (max) / R.U. / V (1st sense): bladder urine volume at the patient's first sensation to urinate / V (Urge): bladder urine volume at the patient's urge to urinate / V (max): maximum bladder urine volume: unstable detrusor
# Procedure: as §1
# Figure 3 illustrates the voiding phase of the cystometrogram for a subject having an unstable detrusor muscle. Spontaneous detrusor contractions are shown to precipitate voiding at a bladder urine volume of about 210 ml. The onset of voiding is associated with involuntary contractions (series of detrusor pressure peaks between 0 and 50 seconds) that are suppressed by increased EMG activity.
# Stable Detrusor [3] = experiment: Urodynamic studies, filling and voiding phase of the bladder (water cystometrogram), stable detrusor; format: in vivo, women; conditions: for Compliance (compliance of the detrusor muscle) / P (maxflow): bladder pressure at maximum urine flow rate / P (opening): bladder pressure at the patient's initiating urination / P (voiding): bladder voiding pressure / Q (max) / R.U. / V (1st sense): bladder urine volume at the patient's first sensation to urinate / V (Urge): bladder urine volume at the patient's urge to urinate / V (max): maximum bladder urine volume: stable detrusor
# Procedure: as §1, §2
# Hydrolysis in water = format: physicochemical
# Unstable Detrusor [4] = experiment: Isometric test: maximum isometric pressure as a function of bladder volume, unstable detrusor; format: in vivo, women; conditions: for I (100): maximum isometric pressure: bladder urine volume 100 ml; for I (200): maximum isometric pressure: bladder urine volume 200 ml; for I (300): maximum isometric pressure: bladder urine volume 300 ml
# Procedure: as §1
# [5] = one subject with unstable detrusor, 400 mg dose 30 minutes prior to recording
# [6] = isometric test, single oral dose 400 mg
smiles,measurement,setting,value
"CCN(CC)CCSC(=O)C(c1ccccc1)c1ccccc1 [Thiphenamil Hydrochloride, thiphenamil hydrochloride]",detrusor pressures in segments A and B (Figure 2 versus Figure 1),"Stable Detrusor [1]; one subject with normal detrusor, 400 mg dose, bladder volume 100 ml and 200 ml",considerably higher
same,isometric detrusor pressure during the filling phase of the bladder,"Stable Detrusor [1]; significant increase from control 36.1 + 26.9, dose not stated in the sentence (matches I (100), 400 mg, Table II)",63.0 + 27.1 cm 1120
same,I (100): maximum bladder isometric pressure,Stable Detrusor [1]; single oral dose 400 mg,63.0±27.1 (13) cm H2O
same,I (100): maximum bladder isometric pressure,Stable Detrusor [1]; single oral dose 800 mg,74±34.6 (6) cm H2O
same,I (200): maximum bladder isometric pressure,Stable Detrusor [1]; single oral dose 400 mg,51.9±26.0 (14) cm H2O
same,I (200): maximum bladder isometric pressure,Stable Detrusor [1]; single oral dose 800 mg,65.0±37.8 (7) cm H2O
same,I (300): maximum bladder isometric pressure,Stable Detrusor [1]; single oral dose 400 mg,50.3±25.8 (12) cm H2O
same,I (300): maximum bladder isometric pressure,Stable Detrusor [1]; single oral dose 800 mg,63.4±26.2 (7) cm H2O
same,I (400): maximum bladder isometric pressure,Stable Detrusor [1]; single oral dose 400 mg,46.6±19.5 (10) cm H2O
same,I (400): maximum bladder isometric pressure,Stable Detrusor [1]; single oral dose 800 mg,50.0±27.5 (6) cm H2O
same,I (500): maximum bladder isometric pressure,Stable Detrusor [1]; single oral dose 400 mg,30.1±15.6 (8) cm H2O
same,I (500): maximum bladder isometric pressure,Stable Detrusor [1]; single oral dose 800 mg,34.0±14.4 (2) cm H2O
same,V (1st sense): bladder urine volume at the patient's first sensation to urinate,Stable Detrusor [1]; single oral dose 400 mg,358±106 (18) ml
same,V (Max): maximum bladder urine volume,Stable Detrusor [1]; single oral dose 400 mg,544±151 (11) ml
same,V (Urge): bladder urine volume at the patient's urge to urinate,Stable Detrusor [1]; single oral dose 400 mg,467±94 (18) ml
same,V (1st sense): bladder urine volume at the patient's first sensation to urinate,Stable Detrusor [1]; single oral dose 800 mg,253.3±96.9 (6) ml
same,V (Max): maximum bladder urine volume,Stable Detrusor [1]; single oral dose 800 mg,425±82 (10) ml
same,V (Urge): bladder urine volume at the patient's urge to urinate,Stable Detrusor [1]; single oral dose 800 mg,385±74.6 (7) ml
same,"detrusor instability (range of fluctuations of the EMG tracing, Figure 4)",Unstable Detrusor [2]; [5],nearly eliminated
same,"height of the detrusor pressure peaks before voiding, Figure 4 versus Figure 3",Unstable Detrusor [2]; [5],general decrease in the height of those peaks
same,"pattern of detrusor instability (series of increasing detrusor pressure peaks leading up to voiding), Figure 4 versus Figure 3",Unstable Detrusor [2]; [5],shifted significantly to the right
same,voiding (Figure 4),Unstable Detrusor [2]; [5],voluntary and complete
same,Compliance (compliance of the detrusor muscle),Unstable Detrusor [2]; single oral dose 400 mg,0.002±0.001 liters/cm H2O
same,P (maxflow): bladder pressure at maximum urine flow rate,Unstable Detrusor [2]; single oral dose 400 mg,44.0±4.4 (3) cm H2O
same,P (opening): bladder pressure at the patient's initiating urination,Unstable Detrusor [2]; single oral dose 400 mg,30±12 (4) cm H2O
same,P (voiding): bladder voiding pressure,Unstable Detrusor [2]; single oral dose 400 mg,47±7 (4) cm H2O
same,Q (max),Unstable Detrusor [2]; single oral dose 400 mg,15±1.9
same,R.U.,Unstable Detrusor [2]; single oral dose 400 mg,140±85 (2)
same,V (1st sense): bladder urine volume at the patient's first sensation to urinate,Unstable Detrusor [2]; single oral dose 400 mg,270±99 (3) ml
same,V (Urge): bladder urine volume at the patient's urge to urinate,Unstable Detrusor [2]; single oral dose 400 mg,345 ± 191 mL
same,V (max): maximum bladder urine volume,Unstable Detrusor [2]; single oral dose 400 mg,440±57 (2) ml
same,Compliance (compliance of the detrusor muscle),Unstable Detrusor [2]; single oral dose 800 mg,0.0027±0.0004 liters/cm H2O
same,P (maxflow): bladder pressure at maximum urine flow rate,Unstable Detrusor [2]; single oral dose 800 mg,55.3±7.0 (3) cm H2O
same,P (opening): bladder pressure at the patient's initiating urination,Unstable Detrusor [2]; single oral dose 800 mg,44±11.3 (2) cm H2O
same,P (voiding): bladder voiding pressure,Unstable Detrusor [2]; single oral dose 800 mg,52.7±6.4 (3) cm H2O
same,Q (max),Unstable Detrusor [2]; single oral dose 800 mg,18.0±1.8 (3)
same,R.U.,Unstable Detrusor [2]; single oral dose 800 mg,27.5±3.5 (3)
same,V (1st sense): bladder urine volume at the patient's first sensation to urinate,Unstable Detrusor [2]; single oral dose 800 mg,275±35 (3) ml
same,V (Urge): bladder urine volume at the patient's urge to urinate,Unstable Detrusor [2]; single oral dose 800 mg,325±35 (2) ml
same,V (max): maximum bladder urine volume,Unstable Detrusor [2]; single oral dose 800 mg,499±177 (3) ml
same,detrusor muscle contractility,"Stable Detrusor [3]; decrease from control 41.3 + 15.3, dose not stated in the sentence (matches P (voiding), 400 mg, Table 1)",37.2 + 16.0 cm H20
same,Compliance (compliance of the detrusor muscle),Stable Detrusor [3]; single oral dose 400 mg,0.002±0.001 liters/cm H2O
same,P (maxflow): bladder pressure at maximum urine flow rate,Stable Detrusor [3]; single oral dose 400 mg,37.9±9.1 (19) cm H2O
same,P (opening): bladder pressure at the patient's initiating urination,Stable Detrusor [3]; single oral dose 400 mg,25.4±13.3 (19) cm H2O
same,P (voiding): bladder voiding pressure,Stable Detrusor [3]; single oral dose 400 mg,37.2±16 (20) cm H2O
same,Q (max),Stable Detrusor [3]; single oral dose 400 mg,16.7±4.4 (21)
same,R.U.,Stable Detrusor [3]; single oral dose 400 mg,132.3±121.4 (18)
same,V (1st sense): bladder urine volume at the patient's first sensation to urinate,Stable Detrusor [3]; single oral dose 400 mg,314±99 (19) ml
same,V (Urge): bladder urine volume at the patient's urge to urinate,Stable Detrusor [3]; single oral dose 400 mg,551±195 (19) ml
same,V (max): maximum bladder urine volume,Stable Detrusor [3]; single oral dose 400 mg,581+155 (19) ml
same,Compliance (compliance of the detrusor muscle),Stable Detrusor [3]; single oral dose 800 mg,0.0025±0.003 liters/cm H2O
same,P (maxflow): bladder pressure at maximum urine flow rate,Stable Detrusor [3]; single oral dose 800 mg,49.5±14.8 (11) cm H2O
same,P (opening): bladder pressure at the patient's initiating urination,Stable Detrusor [3]; single oral dose 800 mg,39.1±12.2 (7) cm H2O
same,P (voiding): bladder voiding pressure,Stable Detrusor [3]; single oral dose 800 mg,65.1±19.1 (11) cm H2O
same,Q (max),Stable Detrusor [3]; single oral dose 800 mg,27.7±9.0 (8)
same,R.U.,Stable Detrusor [3]; single oral dose 800 mg,95.0±72.2 (9)
same,V (1st sense): bladder urine volume at the patient's first sensation to urinate,Stable Detrusor [3]; single oral dose 800 mg,298±67.6 (11) ml
same,V (Urge): bladder urine volume at the patient's urge to urinate,Stable Detrusor [3]; single oral dose 800 mg,381±61 (11) ml
same,V (max): maximum bladder urine volume,Stable Detrusor [3]; single oral dose 800 mg,436±165 (11) ml
same,bladder capacity,Stable Detrusor [3]; versus control,no significant increase
same,stability in water (hydrolysis),Hydrolysis in water,slowly hydrolizes in water
same,I (100): maximum isometric pressure,Unstable Detrusor [4]; single oral dose 400 mg,73±39 (14) cm H2O
same,I (100): maximum isometric pressure,Unstable Detrusor [4]; single oral dose 800 mg,78±53 cm H2O
same,I (200): maximum isometric pressure,Unstable Detrusor [4]; single oral dose 400 mg,44±14 (3) cm H2O
same,I (200): maximum isometric pressure,Unstable Detrusor [4]; single oral dose 800 mg,62±57 cm H2O
same,I (300): maximum isometric pressure,Unstable Detrusor [4]; single oral dose 400 mg,75±5 (2) cm H2O
same,I (300): maximum isometric pressure,Unstable Detrusor [4]; single oral dose 800 mg,96 (1) cm H2O
same,V (1st sense): bladder urine volume at the patient's first sensation to urinate,Unstable Detrusor [4]; [6],270+99 (4) ml
same,V (Urge): bladder urine volume at the patient's urge to urinate,Unstable Detrusor [4]; [6],355±53 (4) ml
same,V (Urge): bladder urine volume at the patient's urge to urinate,"Unstable Detrusor [4]; isometric test, single oral dose 800 mg",423 ± 27.5 mL
